Measured values from patent publication US10266609B2, “Immunomodulating beta-1,6-D-glucans” (Innate Biotherapeutics, LLC, priority 2014, dated 2019).

The molecules below were run on Anti-β-1,6-Glucan IgG antibodies (affinity purified from IVIG, Baxter) (assay: ELISA: binding of oligosaccharides to anti-β-1,6-glucan antibodies). Settings: plate coated with oligosaccharide in PBS; 40 ug/mL anti-Beta 1,6 Glucan IgG; anti-human IgG-HRP, TMB, absorbance at 620 nm.
Experimental: Binding of oligosaccharides to anti-β-1,6-glucan antibodies is performed as described in the following protocol.
• 1. […] Anti-β-1,6-Glucan IgG antibodies (affinity purified from IVIG, Baxter) • 6. […] PBS-Tween buffer (PH 7.2, 0.05% Tween 20, Kpl cat #51-12-01) II. Method: Detection of Anti-Beta Glucan IgG by ELISA • 1. Coat plate with oligosaccharides in PBS overnight at 4° C. • 2. Wash 3 times with 250 uL of PBS-Tween • 3. Empty plate • 4. Block plate with 200 uL of Casein for 1 hour at room temperature • 5. Empty plate • 6. Add 40 ug/mL anti-Beta 1,6 Glucan IgG (4 ug/well) in Casein • 7. Incubate for 45 min at room temperature • 8. Wash 3 times with 250 uL of PBS-Tween • 9. Empty plate • 10. Add detection antibody: anti-human IgG-HRP at 1:5000—in casein. Incubate for 45 min at room temperature in the dark • 11. Wash 5 times with 250 uL of PBS-Tween • 12. Empty plate • 13. Add 100 uL of one step ultra TMB • 14. Measure the absorbance at 620 nm every 1 min for 60 min Tables 1-3 provide ELISA assay data for certain glucan compounds.
Also: key: a plus (+) sign indicates that the glucan was active in the assay; a minus (−) sign indicates that the glucan was not active; the '+/−' symbol indicates inconclusive results.

Molecule | ELISA assay data: glucan active in detection of anti-beta glucan IgG
CN(CCCCCN)CC(O)[C@@H](O)[C@H](O)[C@H](O)CO[C@@H]1O[C@H](CO[C@@H]2O[C@H](CO[C@@H]3O[C@H](CO[C@@H]4O[C@H](CO[C@@H]5O[C@H](CO[C@@H]6O[C@H](CO)[C@@H](O)[C@H](O)[C@H]6O)[C@@H](O)[C@H](O)[C@H]5O)[C@@H](O)[C@H](O)[C@H]4O)[C@@H](O)[C@H](O)[C@H]3O)[C@@H](O)[C@H](O)[C@H]2O)[C@@H](O)[C@H](O)[C@H]1O (mixture of isomers) [N(Me),N(CH2)5NH2, n=6] | +
[N-]=[N+]=NCCOC1OC(COC2OC(COC3OC(COC4OC(COC5OC(COC6OC(COC7OC(COC8OC(COC9OC(CO)C(O)C(O)C9O)C(O)C(O)C8O)C(O)C(O)C7O)C(O)C(O)C6O)C(O)C(O)C5O)C(O)C(O)C4O)C(O)C(O)C3O)C(O)C(O)C2O)C(O)C(O)C1O (stereo not drawn) [α-O(CH2)2N3, n=9] | +
OC[C@H]1O[C@@H](OC[C@H]2O[C@@H](OC[C@H]3O[C@@H](OC[C@H]4O[C@@H](OC[C@H]5O[C@@H](OC[C@H]6O[C@@H](OC[C@H]7O[C@@H](OC[C@H]8O[C@@H](OC[C@H]9O[C@@H](OC[C@H]%10O[C@@H](OC[C@H]%11OC(O)[C@H](O)[C@@H](O)[C@@H]%11O)[C@H](O)[C@@H](O)[C@@H]%10O)[C@H](O)[C@@H](O)[C@@H]9O)[C@H](O)[C@@H](O)[C@@H]8O)[C@H](O)[C@@H](O)[C@@H]7O)[C@H](O)[C@@H](O)[C@@H]6O)[C@H](O)[C@@H](O)[C@@H]5O)[C@H](O)[C@@H](O)[C@@H]4O)[C@H](O)[C@@H](O)[C@@H]3O)[C@H](O)[C@@H](O)[C@@H]2O)[C@H](O)[C@@H](O)[C@@H]1O (stereo partly drawn) [OH, n=11, [O-β-D-glucopyranosyl-1,6]10-D-glucose] | +
N-[6-[(O-(β-D-glucopyranosyl-(1,6))4-β-D-glucopyranosyl](2RS,3R,4R,5R)-2,3,4,5-tetrahydroxyhexyl]-4-piperidylacetic acid [4-piperidine(CH2)CO2H, n=5] | +
OC[C@H]1O[C@@H](OC[C@H]2O[C@@H](OC[C@H]3OC(O)[C@H](O)[C@@H](O)[C@@H]3O)[C@H](O)[C@@H](O)[C@@H]2O)[C@H](O)[C@@H](O)[C@@H]1O (some centres unmarked) [OH, n=3] | +
COC1O[C@H](CO[C@@H]2O[C@H](CO[C@@H]3O[C@H](CO[C@@H]4O[C@H](CO[C@@H]5O[C@H](CO[C@@H]6O[C@H](CO[C@@H]7O[C@H](CO)[C@@H](O)[C@H](O)[C@H]7O)[C@@H](O)[C@H](O)[C@H]6O)[C@@H](O)[C@H](O)[C@H]5O)[C@@H](O)[C@H](O)[C@H]4O)[C@@H](O)[C@H](O)[C@H]3O)[C@@H](O)[C@H](O)[C@H]2O)[C@@H](O)[C@H](O)[C@H]1O (stereo partly drawn) [OCH3, n=7, methyl [O-β-D-glucopyranosyl-1,6]6-D-glucopyranoside] | +
[O-β-D-glucopyranosyl-1,6]6-D-glucopyranoside [OH, n=7] | +
[N-]=[N+]=NCCO[C@@H]1O[C@H](CO[C@@H]2O[C@H](CO[C@@H]3O[C@H](CO[C@@H]4O[C@H](CO[C@@H]5O[C@H](CO)[C@@H](O)[C@H](O)[C@H]5O)[C@@H](O)[C@H](O)[C@H]4O)[C@@H](O)[C@H](O)[C@H]3O)[C@@H](O)[C@H](O)[C@H]2O)[C@@H](O)[C@H](O)[C@H]1O [β-O(CH2)2N3, n=5, 2-azidoethyl [O-β-D-glucopyranosyl-1,6]4-β-D-glucopyranoside] | +
3,5-bis(1-[2-[O-β-D-glucopyranosyl-(1→6)-O-β-D-glucopyranosyl-(1→6)-O-β-D-glucopyranosyl-(1→6)-α-D-glucopyranosyl]oxy]ethyl-1H-1,2,3-triazol-4-yl)methoxybenzoic acid [(β-D-glucopyanosy1-1,6)nα-O(CH2)2-, n=4] | +
[N-]=[N+]=NCCO[C@@H]1O[C@H](CO[C@@H]2O[C@H](CO[C@@H]3O[C@H](CO[C@@H]4O[C@H](CO)[C@@H](O)[C@H](O)[C@H]4O)[C@@H](O)[C@H](O)[C@H]3O)[C@@H](O)[C@H](O)[C@H]2O)[C@@H](O)[C@H](O)[C@H]1O (stereo in doubt) [β-O(CH2)2N3, n=4, 2-Azido ethyl [O-β-D-glucopyranosyl-1,6]3-β-D-glucopyranoside] | +
OCC1OC(OCC2OC(OCC3OC(OCC4OC(OCC5OC(O)C(O)C(O)C5O)C(O)C(O)C4O)C(O)C(O)C3O)C(O)C(O)C2O)C(O)C(O)C1O (centres unmarked) [OH, n=5] | +
O=C(O)C1CCN(CC(O)[C@@H](O)[C@H](O)[C@H](O)CO[C@@H]2O[C@H](CO[C@@H]3O[C@H](CO[C@@H]4O[C@H](CO[C@@H]5O[C@H](CO)[C@@H](O)[C@H](O)[C@H]5O)[C@@H](O)[C@H](O)[C@H]4O)[C@@H](O)[C@H](O)[C@H]3O)[C@@H](O)[C@H](O)[C@H]2O)C1 (mixture of isomers) [3-pyrrolidineCO2H, n=4] | +
[N-]=[N+]=NCCO[C@@H]1OC(CO[C@@H]2OC(CO[C@@H]3OC(CO[C@@H]4OC(CO[C@@H]5OC(CO[C@@H]6O[C@H](CO)[C@@H](O)[C@H](O)[C@H]6O)[C@@H](O)[C@H](O)[C@H]5O)[C@@H](O)[C@H](O)[C@H]4O)[C@@H](O)[C@H](O)[C@H]3O)[C@@H](O)[C@H](O)[C@H]2O)[C@@H](O)[C@H](O)[C@H]1O (stereo partly drawn) [β-O(CH2)2N3, n=6, 2-Azidoethyl [O-β-D-glucopyranosyl-1,6]5-β-D-glucopyranoside] | +
COC1O[C@H](CO[C@@H]2O[C@H](CO[C@@H]3O[C@H](CO[C@@H]4O[C@H](CO)[C@@H](O)[C@H](O)[C@H]4O)[C@@H](O)[C@H](O)[C@H]3O)[C@@H](O)[C@H](O)[C@H]2O)[C@@H](O)[C@H](O)[C@H]1O (stereo partly drawn) [OCH3, n=4, methyl [O-β-D-glucopyranosyl-1,6]3-D-glucopyranoside] | +
O=C(O)C1CCN(CC(O)[C@@H](O)[C@H](O)[C@H](O)CO[C@@H]2O[C@H](CO[C@@H]3O[C@H](CO[C@@H]4O[C@H](CO[C@@H]5O[C@H](CO[C@@H]6O[C@H](CO)[C@@H](O)[C@H](O)[C@H]6O)[C@@H](O)[C@H](O)[C@H]5O)[C@@H](O)[C@H](O)[C@H]4O)[C@@H](O)[C@H](O)[C@H]3O)[C@@H](O)[C@H](O)[C@H]2O)CC1 (mixture of isomers) [4-piperidineCO2H, n=5] | +
COC1O[C@H](CO[C@@H]2O[C@H](CO[C@@H]3O[C@H](CO)[C@@H](O)[C@H](O)[C@H]3O)[C@@H](O)[C@H](O)[C@H]2O)[C@@H](O)[C@H](O)[C@H]1O (stereo partly drawn) [OCH3, n=3, methyl [O-β-D-glucopyranosyl-1,6]2-D-glucopyranoside] | +
[N-]=[N+]=NCCO[C@H]1O[C@H](CO[C@@H]2O[C@H](CO[C@@H]3O[C@H](CO[C@@H]4O[C@H](CO)[C@@H](O)[C@H](O)[C@H]4O)[C@@H](O)[C@H](O)[C@H]3O)[C@@H](O)[C@H](O)[C@H]2O)[C@@H](O)[C@H](O)[C@H]1O [α-O(CH2)2N3, n=4, 1-O-(2-azidoethyl)-6-[O-β-D-glucopyranosyl-1,6]3-α-D-glucopyranoside] | +
